From US20180264282A1, “Specially Designed Kit To Aid Photo-Biologic Eradication Of Staphylococcus Aureus And MRSA In The Nares” (Nomir Medical Technologies, Inc., priority 2017, published 2018)
Several values for one entry are separate records, joined by “and”; a condition that tells them apart may be missing. Equal values may be shown once. Read-outs that look alike come from different tables or passages of the source.

Columns and labels:
[1] = test system: Staphylococcal furunculosis in the nose; conditions: 25% aqueous solution, topical; patients with chronic Staphylococcal furunculosis in the nose; cited from earlier work
[2] = test system: MRSA; conditions: cited from earlier work
[3] = test system: S. aureus; conditions: in paraffin intra-nasally b.i.d. for five days; 72 hours after therapy; cited from earlier work
[4] = test system: S. aureus; conditions: cited from earlier work
[5] = test system: gram-negative enterobacteriacea; conditions: cited from earlier work
[6] = test system: pyogenic skin infections; conditions: 2% water miscible cream three times per day for five days; assessed day seven; cited from earlier work
[7] = test system: S. aureus; conditions: cited from earlier work; remark: listed apart in the source
[8] = test system: S. aureus; conditions: b.i.d. five day regimen; cited from earlier work
[9] = test system: S. aureus; conditions: cited from earlier work; remark: listed apart in the source
[10] = test system: S. aureus; assay: summary of clinical nasal decolonization studies using mupirocin treatments; format: in vivo, human; conditions: administered three times per day versus twice per day
Source text: Overall, the results from clinical studies of nasal decolonization studies using various mupirocin treatments are summarized in the table below: […]

[11] = test system: gram-positive bacteria such as S. aureus; conditions: cited from earlier work
[12] = test system: gram-positive enterococci; conditions: cited from earlier work
[13] = test system: S. aureus; conditions: cited from earlier work; remark: listed apart in the source
[14] = test system: S. aureus; conditions: nasal administration; cited from earlier work
[15] = test system: nasal carriage of staphylococci; conditions: in snuff compounds; returned to normal after snuff therapy was discontinued; cited from earlier work
[16] = test system: sycosis barbae; conditions: cream to skin lesions and nose; cited from earlier work
[17] = test system: impetigo and furunculosis; conditions: spray; cited from earlier work
[18] = test system: S. aureus; conditions: after five days of local treatment to the nose, cited from earlier work
[19] = three weeks after the treatment phase

Molecule: [Cl][Al]([Cl])[Cl] [aluminum chloride]
- treatment outcome [1]: successful treatment outcome for all

Molecule: C/C(=C\C(=O)OCCCCCCCCC(=O)O)C[C@@H]1OC[C@H](C[C@@H]2O[C@H]2[C@@H](C)[C@H](C)O)[C@@H](O)[C@H]1O [mupirocin]
- treated patients and staff with nasal carriage eliminated ([2]; 2% in paraffin t.i.d. for five days, 40 patients and 32 staff): all
- number of patients with MRSA isolated from wrists ([2]; immediately after therapy was completed, from 16 before): three
- time to elimination of nasal carriage ([2]; usually): ≤ 48 h
- patients recolonized ([2]; within two weeks after therapy): Four
- proportion of hand cultures positive for S. aureus [3]: 2.9%
- effective concentrations [4]: 0.05 to 0.5 µg/mL
- mutant inhibitory concentration (MIC) [4]: 0.05 µg/mL
- type of effect at MIC ([4]; within MIC range cells recover in fresh media, higher concentrations needed for bactericidal effect): bacteriostatic
- antibacterial activity [5]: not substantial activity
- patients with infection completely cleared [6]: 43 of the 46
- participants with S. aureus eradicated ([7]; in paraffin t.i.d. for five days, tested four days after the last dose): 67 of the 69
- patients recolonized with S. aureus in the nose ([7]; two weeks post therapy): approximately 40%
- patients with nasal carriage eliminated [8]: approximately 80%
- patients with S. aureus carriage eliminated from nares ([9]; 2% in white soft paraffin four times per day, 18 treated): all
- change in MIC to mupirocin on recolonization [9, 19]: without an increase
- patients who regained S. aureus in the nares [9, 19]: three
- outcomes t.i.d. compared with b.i.d. [10]: statistically significantly better outcomes
- antibacterial activity [11]: antibacterial activity
- cross-resistance with other antibiotics [11]: no cross-resistance
- antibacterial activity [12]: not substantial activity
- Elimination after trial ([13]; 2X-3X per day, 3-8 days): 97%
- Elimination after trial ([13]; 3X per Day, 5 Days): 100% and 97%
- Elimination after trial ([13]; 4X per Day, 5 Days): 100%
- Recolonization ([13]; at 3 weeks, 4X per Day, 5 Days): 16% at 3 weeks
- Recolonization ([13]; at 4 weeks, 2X per day, 5 days): 43% at 4 weeks and 22% at 4 weeks and 26% at 4 weeks

Molecule: Cc1onc(-c2ccccc2)c1C(=O)N[C@@H]1C(=O)N2[C@@H]1SC(C)(C)[C@@H]2C(=O)O [oxacillin]
- aerial colonies of S. aureus [14]: decreased the aerial colonies of S. aureus
- nasal colonization [14]: decreased nasal colonization

Molecule: Nc1ccc(S(=O)(=O)Nc2nccs2)cc1 [sulphathiazole]
- nasal colonies [15]: great reduction in nasal colonies

Molecule: penicillin
- healing of patients [16]: all but one patient healed to satisfaction
- nasal colonies [15]: great reduction in nasal colonies
- use in treatment of impetigo and furunculosis [17]: successful
- skin carriage ([18]; from 57% before): 38%
- nasal S. aureus carriage ([18]; from 97% before): 37%
